US11414416B1, “Compounds and uses thereof” (Foghorn Therapeutics Inc., priority 2019, dated 2022)

What was measured:
BRD9 bromodomain = BRD9 bromodomain (Homo sapiens (Human), UniProt Q9H8M2); experiment: BRD9 bromodomain TR-FRET competition binding assay; details: Table 4; competition with biotinylated ligand, 3 nM Flag-BRD9, 90 minutes
Procedure, shortened: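 TEV-cleaved Flag-BRD9 (P133-K239, 3 nM) competed against 3.75 nM biotinylated ligand, with 7.5 nM APC-streptavidin and 0.2 nM Eu-W1024 anti-FLAG, in HEPES pH 7.4, NaCl, TCEP, Tween-20, BSA. Compounds were serially diluted 3-fold; after 90 min at room temperature the 665/615 nm emission ratio was read.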

[1] = target: Nanoluciferase-BRD9 fusion protein (Homo sapiens (Human), UniProt Q9H8M2); experiment: SYO1 BRD9 NanoLuc degradation assay; type: cell-based; details: Table 5A, SYO-1 cells expressing 3×FLAG-NLuc-BRD9, 6 hours; for DC50: read-out: SYO1 BRD9-NanoLuc degradation IC50
Nanoluciferase-BRD9 fusion protein, sequence (Q9H8M2 whole entry, the tested form may be a part): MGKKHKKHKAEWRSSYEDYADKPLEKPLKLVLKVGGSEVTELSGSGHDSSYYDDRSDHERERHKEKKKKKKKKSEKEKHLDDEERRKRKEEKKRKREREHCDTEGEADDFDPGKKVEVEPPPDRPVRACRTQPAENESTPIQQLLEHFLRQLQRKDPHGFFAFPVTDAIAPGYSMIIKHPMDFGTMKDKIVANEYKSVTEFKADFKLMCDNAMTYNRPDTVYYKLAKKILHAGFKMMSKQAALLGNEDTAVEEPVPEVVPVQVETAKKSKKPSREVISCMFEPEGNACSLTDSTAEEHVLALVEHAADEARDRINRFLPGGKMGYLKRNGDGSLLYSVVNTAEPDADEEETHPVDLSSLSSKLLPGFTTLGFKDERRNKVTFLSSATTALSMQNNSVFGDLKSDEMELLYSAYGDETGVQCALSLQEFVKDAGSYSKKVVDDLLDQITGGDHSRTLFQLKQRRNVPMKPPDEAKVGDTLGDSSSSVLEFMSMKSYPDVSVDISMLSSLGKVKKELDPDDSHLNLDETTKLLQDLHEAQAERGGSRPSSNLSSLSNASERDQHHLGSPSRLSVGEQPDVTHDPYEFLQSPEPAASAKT
Procedure, shortened: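 Degradation was read as loss of nanoluciferase signal (Nano-Glo) after 6 h compound exposure in a stable SYO-1 line carrying 3×FLAG-NLuc-BRD9 (8000 cells/well). Normalised between DMSO (high) and a 1 μM known BRD9 degrader (low).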

BRD9 bromodomain, sequence (Q9H8M2 133-239): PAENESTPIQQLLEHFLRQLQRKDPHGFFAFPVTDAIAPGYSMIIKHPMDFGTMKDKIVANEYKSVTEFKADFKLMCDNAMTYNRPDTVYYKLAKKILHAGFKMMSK

| IC50 (BRD9 bromodomain) | DC50 [1] | IC50 [1] | Structure (SMILES) |
| --- | --- | --- | --- |
| 10 to 100 nM | – | < 10 nM | COc1cc(-c2cn(C)c(=O)c3cnccc23)cc(OC)c1CN(C)CC(=O)NCCCCN1CCOC2(CCN(c3ccc4c(c3)C(=O)N(C3CCC(=O)NC3=O)C4=O)CC2)C1 (stereo not shown) [Compound D73, 2-([[2,6-dimethoxy-4-(2-methyl-1-oxo-2,7-naphthyridin-4-yl)phenyl]methyl](methyl)amino)-N-(4-[9-[2-(2,6-dioxopiperidin-3-yl)-1,3-dioxoisoindol-5-yl]-1-oxa-4,9-diazaspiro[5.5]undecan-4-yl]butyl)acetamide formic acid] |
| 100 to 1000 nM | – | 100 to 1000 nM | COc1cc(-c2cn(C)c(=O)c3cnccc23)cc(OC)c1CN1CCC12CN(C(=O)CCOCCOc1ccc3c(c1)C(=O)N(C1CCC(=O)NC1=O)C3=O)C2 (stereo not shown) [Compound D98] |
| 10 to 100 nM | – | > 1000 nM | COc1cc(-c2cn(C)c(=O)c3cnccc23)cc(OC)c1CN1CC[C@H]1C(=O)NCCN(C)CCNC(=O)COc1ccc2c(c1)C(=O)N(C1CCC(=O)NC1=O)C2=O (stereo partly drawn) [Compound D26, N-[2-[(2-[[(2S)-1-[[2,6-dimethoxy-4-(2-methyl-1-oxo-1,2-dihydro-2,7-naphthyridin-4-yl)phenyl]methyl]azetidin-2-yl]formamido]ethyl)(methyl)amino]ethyl]-2-[[2-(2,6-dioxopiperidin-3-yl)-1,3-dioxo-2,3-dihydro-1H-isoindol-5-yl]oxy]acetamide] |
| < 10 nM | 10 to 100 nM | – | COc1cc(-c2cn(C)c(=O)c3cnccc23)cc(OC)c1CN1CCC2(C[C@@H]2NC(=O)CCOCCOc2ccc3c(c2)C(=O)N(C2CCC(=O)NC2=O)C3=O)C1 (stereo partly shown) [Compound D125] |
| 10 to 100 nM | – | 10 to 100 nM | COc1cc(-c2cn(C)c(=O)c3cnccc23)cc(OC)c1CN1CCC2(CCN(C(=O)CCOCCOc3ccc4c(c3)C(=O)N(C3CCC(=O)NC3=O)C4=O)C2)C1 (stereo not shown) [Compound D121] |
| < 10 nM | – | < 10 nM | COc1cc(-c2cn(C)c(=O)c3cnccc23)cc(OC)c1CN(C)C(=O)CCCCN1CCOC2(CCN(c3ccc4c(c3)C(=O)N(C3CCC(=O)NC3=O)C4=O)CC2)C1 (stereo not shown) [Compound D72, N-[[2,6-dimethoxy-4-(2-methyl-1-oxo-2,7-naphthyridin-4-yl)phenyl]methyl]-5-[9-[2-(2,6-dioxopiperidin-3-yl)-1,3-dioxoisoindol-5-yl]-1-oxa-4,9-diazaspiro[5.5]undecan-4-yl]-N-methylpentanamide formic acid] |
| < 10 nM | – | < 10 nM | COc1cc(-c2cn(C)c(=O)c3cnccc23)cc(OC)c1CN1CCC2(CC1)CN(C(=O)CCCCOc1cccc3c1C(=O)N(C1CCC(=O)NC1=O)C3=O)CCO2 (stereo not shown) [Compound D40, 4-[[5-(9-[[2,6-dimethoxy-4-(2-methyl-1-oxo-2,7-naphthyridin-4-yl)phenyl]methyl]-1-oxa-4,9-diazaspiro[5.5]undecan-4-yl)-5-oxopentyl]oxy]-2-(2,6-dioxopiperidin-3-yl)isoindole-1,3-dione formic acid] |

The remaining lines, values behind:

| Structure (SMILES) | IC50 (BRD9 bromodomain) | DC50 [1] | IC50 [1] |
| --- | --- | --- | --- |
| COc1cc(-c2cn(C)c(=O)c3cnccc23)cc(OC)c1CN(C)CC12CC(NC(=O)CCOCCOCCNc3cccc4c3C(=O)N(C3CCC(=O)NC3=O)C4=O)(C1)C2 (stereo not shown) [Compound D68, N-[3-[([[2,6-dimethoxy-4-(2-methyl-1-oxo-2,7-naphthyridin-4-yl)phenyl]methyl](methyl)amino)methyl]bicyclo[1.1.1]pentan-1-yl]-3-[2-(2-[[2-(2,6-dioxopiperidin-3-yl)-1,3-dioxoisoindol-4-yl]amino]ethoxy)ethoxy]propanamide formic acid] | < 10 nM | 100 to 1000 nM | – |
| COc1cc(-c2cn(C)c(=O)c3cnccc23)cc(OC)c1CN1CCC12CN(C(=O)CCOCCOc1cccc3c1C(=O)N(C1CCC(=O)NC1=O)C3=O)C2 (stereo not shown) [Compound D86] | 10 to 100 nM | – | 100 to 1000 nM |
| COc1cc(-c2cn(C)c(=O)c3cnccc23)cc(OC)c1CN(C)CC(=O)N1CCC(C2CCN(C(=O)COc3cccc4c3C(=O)N(C3CCC(=O)NC3=O)C4=O)CC2)CC1 (stereo not shown) [Compound D2, 4-(2-[1-[2-([[2,6-dimethoxy-4-(2-methyl-1-oxo-1,2-dihydro-2,7-naphthyridin-4-yl)phenyl]methyl](methyl)amino)acetyl]-[4,4-bipiperidin]-1-yl]-2-oxoethoxy)-2-(2,6-dioxopiperidin-3-yl)-2,3-dihydro-1H-isoindole-1,3-dione] | < 10 nM | 10 to 100 nM | – |
| COc1cc(-c2cn(C)c(=O)c3cnccc23)cc(OC)c1CN1CC2(C1)CN(C(=O)COc1cccc3c1C(=O)N(C1CCC(=O)NC1=O)C3=O)C2 (stereo not shown) [Compound D36, 4-(2-(6-(2,6-dimethoxy-4-(2-methyl-1-oxo-1,2-dihydro-2,7-naphthyridin-4-yl)benzyl)-2,6-diazaspiro[3.3]heptan-2-yl)-2-oxoethoxy)-2-(2,6-dioxopiperidin-3-yl)isoindoline-1,3-dione] | < 10 nM | 100 to 1000 nM | – |
| COc1cc(-c2cn(C)c(=O)c3cnccc23)cc(OC)c1CN1CCC2(C[C@@H]2NC(=O)CCOCCOc2cccc3c2C(=O)N(C2CCC(=O)NC2=O)C3=O)C1 (stereo partly shown) [Compound D112] | < 10 nM | 100 to 1000 nM | – |
| COc1cc(-c2cn(C)c(=O)c3cnccc23)cc(OC)c1CN1CC(C(=O)NCCS(=O)(=O)CCNc2cccc3c2C(=O)N(C2CCC(=O)NC2=O)C3=O)C1 (stereo not shown) [Compound D30, 1-(2,6-dimethoxy-4-(2-methyl-1-oxo-1,2-dihydro-2,7-naphthyridin-4-yl)benzyl)-N-(2-((2-((2-(2,6-dioxopiperidin-3-yl)-1,3-dioxoisoindolin-4-yl)amino)ethyl)sulfonyl)ethyl)azetidine-3-carboxamide] | < 10 nM | 10 to 100 nM | – |
| COc1cc(-c2cn(C)c(=O)c3cnccc23)cc(OC)c1CN(C)C1CC2CC1CN2C(=O)CCOCCOc1ccc2c(c1)C(=O)N(C1CCC(=O)NC1=O)C2=O (stereo not shown) [Compound D171] | 10 to 100 nM | – | < 10 nM |
| COc1cc(-c2cn(C)c(=O)c3cnccc23)cc(OC)c1CN1CC(S(=O)(=O)NCCOCCOCCNc2cccc3c2C(=O)N(C2CCC(=O)NC2=O)C3=O)C1 (stereo not shown) [Compound D38, 1-[[2,6-dimethoxy-4-(2-methyl-1-oxo-2,7-naphthyridin-4-yl)phenyl]methyl]-N-[2-[2-(2-[[2-(2,6-dioxopiperidin-3-yl)-1,3-dioxoisoindol-4-yl]amino]ethoxy)ethoxy]ethyl]azetidine-3-sulfonamide formic acid] | < 10 nM | – | < 10 nM |
| COc1cc(-c2cn(C)c(=O)c3cnccc23)cc(OC)c1CN1CC[C@H]1C(=O)NCCN(C)CCNc1cccc2c1C(=O)N(C1CCC(=O)NC1=O)C2=O (stereo partly drawn) [Compound D25, (2S)-1-[[2,6-dimethoxy-4-(2-methyl-1-oxo-1,2-dihydro-2,7-naphthyridin-4-yl)phenyl]methyl]-N-[2-[(2-[[2-(2,6-dioxopiperidin-3-yl)-1,3-dioxo-2,3-dihydro-1H-isoindol-4-yl]amino]ethyl)(methyl)amino]ethyl]azetidine-2-carboxamide] | < 10 nM | 100 to 1000 nM | – |
| COc1cc(-c2cn(C)c(=O)c3cnccc23)cc(OC)c1CN1CCC2(C[C@H]2NC(=O)CCOCCOc2cccc3c2C(=O)N(C2CCC(=O)NC2=O)C3=O)C1 (stereo partly shown) [Compound D111] | < 10 nM | 10 to 100 nM | – |
| COc1cc(-c2cn(C)c(=O)c3cnccc23)cc(OC)c1CN(C)C12CC(NC(=O)CCOCCOCCNc3cccc4c3C(=O)N(C3CCC(=O)NC3=O)C4=O)(C1)C2 (stereo not shown) [Compound D59, N-[3-([[2,6-dimethoxy-4-(2-methyl-1-oxo-2,7-naphthyridin-4-yl)phenyl]methyl](methyl)amino)bicyclo[1.1.1]pentan-1-yl]-3-[2-(2-[[2-(2,6-dioxopiperidin-3-yl)-1,3-dioxoisoindol-4-yl]amino]ethoxy)ethoxy]propanamide formic acid] | < 10 nM | – | < 10 nM |
| COc1cc(-c2cn(C)c(=O)c3cnccc23)cc(OC)c1CN1CC(C(=O)N(C)CCCCCCCCNc2cccc3c2C(=O)N(C2CCC(=O)NC2=O)C3=O)C1 (stereo not shown) [Compound D14, 1-[[2,6-dimethoxy-4-(2-methyl-1-oxo-1,2-dihydro-2,7-naphthyridin-4-yl)phenyl]methyl]-N-(8-[[2-(2,6-dioxopiperidin-3-yl)-1,3-dioxo-2,3-dihydro-1H-isoindol-4-yl]amino]octyl)-N-methylazetidine-3-carboxamide] | < 10 nM | – | < 10 nM |
| COc1cc(-c2cn(C)c(=O)c3cnccc23)cc(OC)c1CN1CCC2(C1)CN(C(=O)CCOCCOc1cccc3c1C(=O)N(C1CCC(=O)NC1=O)C3=O)C2 (stereo not shown) [Compound D87] | < 10 nM | 10 to 100 nM | – |
| COc1cc(-c2cn(C)c(=O)c3cnccc23)cc(OC)c1CN(C)CC12CC(NC(=O)CCCCOc3cccc4c3C(=O)N(C3CCC(=O)NC3=O)C4=O)(C1)C2 (stereo not shown) [Compound D69, N-[3-[([[2,6-dimethoxy-4-(2-methyl-1-oxo-2,7-naphthyridin-4-yl)phenyl]methyl](methyl)amino)methyl]bicyclo[1.1.1]pentan-1-yl]-5-[[2-(2,6-dioxopiperidin-3-yl)-1,3-dioxoisoindol-4-yl]oxy]pentanamide] | < 10 nM | – | < 10 nM |
| COc1cc(-c2cn(C)c(=O)c3cnccc23)cc(OC)c1CN(C)CC1CC2(CCN(C(=O)CCOCCOc3cccc4c3C(=O)N(C3CCC(=O)NC3=O)C4=O)CC2)C1 (stereo not shown) [Compound D165] | 10 to 100 nM | – | 10 to 100 nM |
| COc1cc(-c2cn(C)c(=O)c3cnccc23)cc(OC)c1CN1CCC2CCN(C(=O)CCOCCOc3ccc4c(c3)C(=O)N(C3CCC(=O)NC3=O)C4=O)CC21 (stereo not shown) [Compound D123] | < 10 nM | – | < 10 nM |
